Reference: patent publication US8012979B2, “Compounds and their uses 707” (AstraZeneca AB, priority 2007, dated 2011)

Each molecule was assayed against T1, human active recombinant p38α-6His tagged (Homo sapiens, UniProt Q16539) (assay: p38 Alpha Enzyme Assay (AlphaScreen, biotinylated-ATF2 substrate)). Conditions: pre-incubated 4 hours at 37° C., reaction initiated with ATP; 0.5 nM enzyme; read-out: p38 pIC50 (converted).
T1 construct: 6His
Assay type: biochemical
Procedure: The ability of the compounds of formula (I) to inhibit p38 kinase may be determined using the following biological assay:
Enzyme assays were performed in polypropylene 96 well plates. The following solutions were added to each well; 10 μL of compound dilutions in assay buffer (20 mM HEPES pH 7.4, containing 20 mM magnesium acetate, 0.005% (w/v) Tween-20, 10 mM DTT) containing 1% (v/v) DMSO or assay buffer containing 1% (v/v) DMSO alone, 70 μL of assay buffer containing 36 nM substrate (biotinylated-ATF2) and 10 μL of an appropriate dilution of human active recombinant p38α-6His tagged. Depending on batch of p38, an appropriate dilution was typically a 5 nM solution to give a final enzyme concentration of 0.5 nM. At this stage, background control wells also received 50 μL of AlphaScreen quench buffer (10 mM HEPES pH 7.4 containing 100 mM EDTA, 0.2% (w/v) bovine serum albumin). The plate was covered, pre-incubated for 4 hours at 37° C. and the enzyme reaction initiated by addition of 10 μL 1 mM ATP. After incubation for a further 45 minutes at 37° C., the reaction was stopped by addition of 50 μL quench reagent and 50 μL of the quenched reaction mixture transferred to an opaque, white 96-well plate. Detection reagent, 25 μL of 10 mM HEPES pH 7.4 containing 100 mM EDTA, 0.2% (w/v) bovine serum albumin, 0.3 nM anti phosphoATF2 antibody and 25 μg/mL of ‘AlphaScreen protein A acceptor and donor beads’ (PerkinElmer Inc.), was added to all wells in a darkened room, the plate sealed and left in the dark for at least 5 hours before AlphaScreen readings were taken using a Perkin Elmer EnVision reader. Total, uninhibited activity was determined from assays performed in each assay plate. The mean control in the absence of p38 activity was subtracted from each well. Data were expressed as percent inhibition of total activity using equation 1. Percent Inhibition=100*(1−Test/Control) Eq.1 Where . . . . • Test=p38 kinase activity in the presence of compound • Control=p38 kinase activity in the absence of compound.
pIC50 is defined as the logarithm of the reciprocal of the concentration of compound required for 50% reduction in total p38 kinase activity.

T1 sequence (Q16539 whole entry): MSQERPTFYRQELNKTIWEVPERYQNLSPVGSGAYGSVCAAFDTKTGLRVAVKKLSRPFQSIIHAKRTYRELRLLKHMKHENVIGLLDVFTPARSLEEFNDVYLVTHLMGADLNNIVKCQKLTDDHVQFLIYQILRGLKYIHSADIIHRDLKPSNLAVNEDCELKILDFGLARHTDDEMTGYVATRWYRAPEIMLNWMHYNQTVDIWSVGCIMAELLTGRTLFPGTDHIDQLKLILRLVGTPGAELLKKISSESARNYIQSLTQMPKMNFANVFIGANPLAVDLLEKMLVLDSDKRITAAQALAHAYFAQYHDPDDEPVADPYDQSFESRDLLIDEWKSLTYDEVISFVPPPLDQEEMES

SMILES | IC50 [nM]
Cc1ccc(C(=O)NC2CC2)cc1-c1ccc2c(=O)n(Cc3ccc(OCCCN(C)C)nc3)ccc2c1 [Example 29, N-Cyclopropyl-3-(2-((6-(3-(dimethylamino)propoxy)pyridin-3-yl)methyl)-1-oxo-1,2-dihydroisoquinolin-6-yl)-4-methylbenzamide] | 1.58
Cc1ccc(C(=O)NC2CC2)cc1-c1ccc2c(=O)n(Cc3ccc(OCCN(C)C)nc3)ccc2c1 [Example 30, N-Cyclopropyl-3-(2-((6-(2-(dimethylamino)ethoxy)pyridin-3-yl)methyl)-1-oxo-1,2-dihydroisoquinolin-6-yl)-4-methylbenzamide] | 1
Cc1ccc(C(=O)NC2CC2)cc1-c1ccc2c(=O)n(Cc3ccc(OCCN4CCCC4)nc3)ccc2c1 [Example 31, N-Cyclopropyl-4-methyl-3-(1-oxo-2-((6-(2-(pyrrolidin-1-yl)ethoxy)pyridin-3-yl)methyl)-1,2-dihydroisoquinolin-6-yl)benzamide] | 0.631
Cc1ccc(C(=O)NC2CC2)cc1-c1ccc2c(=O)n(Cc3ccc(OCCN(C)C)cc3)ccc2c1 [Example 32, N-Cyclopropyl-3-(2-(4-(2-(dimethylamino)ethoxy)benzyl)-1-oxo-1,2-dihydroisoquinolin-6-yl)-4-methylbenzamide] | 0.501
Cc1ccc(C(=O)NC2CC2)cc1-c1ccc2c(=O)n(Cc3cccc(OCCN4CCCC4)c3)ccc2c1 [Example 33, N-Cyclopropyl-4-methyl-3-{1-oxo-2-[3-(2-pyrrolidin-1-ylethoxy)benzyl]-1,2-dihydroisoquinolin-6-yl}benzamide] | 2
CNCCOc1cccc(Cn2ccc3cc(-c4cc(C(=O)NC5CC5)ccc4C)ccc3c2=O)c1 [Example 34, N-Cyclopropyl-4-methyl-3-(2-{3-[2-(methylamino)ethoxy]benzyl}-1-oxo-1,2-dihydroisoquinolin-6-yl)benzamide] | 2.51
Cc1ccc(C(=O)NC2CC2)cc1-c1ccc2c(=O)n(Cc3cccc(OCCNCCO)c3)ccc2c1 [Example 35, N-Cyclopropyl-3-[2-(3-{2-[(2-hydroxyethyl)amino]ethoxy}benzyl)-1-oxo-1,2-dihydroisoquinolin-6-yl]-4-methylbenzamide] | 2
CNCCOc1ccc(Cn2ccc3cc(-c4cc(C(=O)NC5CC5)ccc4C)ccc3c2=O)cc1 [Example 36, N-Cyclopropyl-4-methyl-3-(2-(4-(2-(methylamino)ethoxy)benzyl)-1-oxo-1,2-dihydroisoquinolin-6-yl)benzamide] | 0.398
Cc1ccc(C(=O)NC2CC2)cc1-c1ccc2c(=O)n(CC3CC3)cc(C(=O)N3CC[C@@H](N)C3)c2c1 [Example 37, (R)-3-(4-(3-Aminopyrrolidine-1-carbonyl)-2-(cyclopropylmethyl)-1-oxo-1,2-dihydroisoquinolin-6-yl)-N-cyclopropyl-4-methylbenzamide] | 3.98
Cc1ccc(C(=O)NC2CC2)cc1-c1ccc2c(=O)n(CC3CC3)cc(C(=O)NC3CCN(C)CC3)c2c1 [Example 38, 6-(5-(Cyclopropylcarbamoyl)-2-methylphenyl)-2-(cyclopropylmethyl)-N-(1-methylpiperidin-4-yl)-1-oxo-1,2-dihydroisoquinoline-4-carboxamide] | 3.98
Cc1ccc(C(=O)NC2CC2)cc1-c1ccc2c(=O)n(CC3CC3)cc(C(=O)N3CCN(C)CC3)c2c1 [Example 39, N-Cyclopropyl-3-(2-(cyclopropylmethyl)-4-(4-methylpiperazine-1-carbonyl)-1-oxo-1,2-dihydroisoquinolin-6-yl)-4-methylbenzamide] | 5.01
Cc1ccc(C(=O)NC2CC2)cc1-c1ccc2c(=O)n(CC3CC3)cc(C(=O)NCCN(C)C)c2c1 [Example 40, 6-(5-(Cyclopropylcarbamoyl)-2-methylphenyl)-2-(cyclopropylmethyl)-N-(2-(dimethylamino)ethyl)-1-oxo-1,2-dihydroisoquinoline-4-carboxamide] | 3.98
Cc1ccc(C(=O)NC2CC2)cc1-c1ccc2c(=O)n(CC3CC3)cc(C(=O)NC3CCNCC3)c2c1 [Example 41, 6-(5-(Cyclopropylcarbamoyl)-2-methylphenyl)-2-(cyclopropylmethyl)-1-oxo-N-(piperidin-4-yl)-1,2-dihydroisoquinoline-4-carboxamide] | 1.58
Cc1ccc(C(=O)NC2CC2)cc1-c1ccc2c(=O)n(CC3CC3)cc(C(=O)N3CCC(N)CC3)c2c1 [Example 42, 3-(4-(4-Aminopiperidine-1-carbonyl)-2-(cyclopropylmethyl)-1-oxo-1,2-dihydroisoquinolin-6-yl)-N-cyclopropyl-4-methylbenzamide] | 1.26
Cc1ccc(C(=O)NC2CC2)cc1-c1ccc2c(=O)n(CC3CC3)cc(C(=O)N3CC[C@H](N)C3)c2c1 [Example 43, (S)-3-(4-(3-Aminopyrrolidine-1-carbonyl)-2-(cyclopropylmethyl)-1-oxo-1,2-dihydroisoquinolin-6-yl)-N-cyclopropyl-4-methylbenzamide] | 5.01
Cc1ccc(C(=O)NC2CC2)cc1-c1ccc2c(=O)n(CC3CC3)cc(C(=O)NCCCN3CCCC3)c2c1 [Example 44, 6-(5-(Cyclopropylcarbamoyl)-2-methylphenyl)-2-(cyclopropylmethyl)-1-oxo-N-(3-(pyrrolidin-1-yl)propyl)-1,2-dihydroisoquinoline-4-carboxamide] | 25.1
Cc1ccc(C(=O)NC2CC2)cc1-c1ccc2c(=O)n(CC3CC3)cc(C(=O)N3CCC(N(C)C)CC3)c2c1 [Example 45, N-Cyclopropyl-3-(2-(cyclopropylmethyl)-(4-(dimethylamino)piperidine-1-carbonyl)-1-oxo-1,2-dihydroisoquinolin-6-yl)-4-methylbenzamide] | 2.51
Cc1ccc(C(=O)NC2CC2)cc1-c1ccc2c(=O)n(CC3CC3)cc(C(=O)N3CCN(CCN(C)C)CC3)c2c1 [Example 46, N-Cyclopropyl-3-(2-(cyclopropylmethyl)-4-(4-(2-(dimethylamino)ethyl)piperazine-1-carbonyl)-1-oxo-1,2-dihydroisoquinolin-6-yl)-methylbenzamide] | 25.1
Cc1ccc(C(=O)NC2CC2)cc1-c1ccc2c(=O)n(Cc3ccccc3)cc(C(=O)NCCN3CCCCC3)c2c1 [Example 48, 2-Benzyl-6-(5-(cyclopropylcarbamoyl)-2-methylphenyl)-1-oxo-N-(2-(piperidin-1-yl)ethyl)-1,2-dihydroisoquinoline-4-carboxamide] | 2.51
Cc1ccc(C(=O)NC2CC2)cc1-c1ccc2c(=O)n(Cc3ccccc3)cc(C(=O)NCCN3CCCC3)c2c1 [Example 49, 2-Benzyl-6-{5-[(cyclopropylamino)carbonyl]-2-methylphenyl}-1-oxo-N-(2-pyrrolidin-1-ylethyl)-1,2-dihydroisoquinoline-4-carboxamide] | 3.16
Cc1ccc(C(=O)NC2CC2)cc1-c1ccc2c(=O)n(Cc3ccccc3)cc(C(=O)NC3CCN(C)CC3)c2c1 [Example 50, 2-Benzyl-6-{5-[(cyclopropylamino)carbonyl]-2-methylphenyl}-N-(1-methylpiperidin-4-yl)-1-oxo-1,2-dihydroisoquinoline-4-carboxamide] | 2
Cc1ccc(C(=O)NC2CC2)cc1-c1ccc2c(=O)n(Cc3ccccc3)cc(C(=O)NCCCN(C)C)c2c1 [Example 51, 2-Benzyl-6-{5-[(cyclopropylamino)carbonyl]-2-methylphenyl}-N-[3-(dimethylamino)propyl]-1-oxo-1,2-dihydroisoquinoline-4-carboxamide] | 2
Cc1ccc(C(=O)NC2CC2)cc1-c1ccc2c(=O)n(Cc3ccccc3)cc(C(=O)N3CCN(CCO)CC3)c2c1 [Example 52, 3-(2-Benzyl-4-{[4-(2-hydroxyethyl)piperazin-1-yl]carbonyl}-1-oxo-1,2-dihydroisoquinolin-6-yl)-N-cyclopropyl-4-methylbenzamide] | 10
Cc1ccc(C(=O)NC2CC2)cc1-c1ccc2c(=O)n(Cc3ccccc3)cc(C(=O)N3CC[C@@H](N)C3)c2c1 [Example 53, (R)-3-(4-(3-Aminopyrrolidine-1-carbonyl)-2-benzyl-1-oxo-1,2-dihydroisoquinolin-6-yl)-N-cyclopropyl-4-methylbenzamide] | 2
Cc1ccc(C(=O)NC2CC2)cc1-c1ccc2c(=O)n(Cc3ccncc3)cc(C(=O)N3CCC(N4CCCC4)CC3)c2c1 [Example 54, N-Cyclopropyl-4-methyl-3-(1-oxo-2-(pyridin-4-ylmethyl)-4-(4-(pyrrolidin-1-yl)piperidine-1-carbonyl)-1,2-dihydroisoquinolin-6-yl)benzamide] | 25.1
